Laboratory results taken from ChEMBL document CHEMBL4507276 (2021).

Columns and labels:
[1] = target: T1, D(4) dopamine receptor (Homo sapiens) (UniProt P21917); conditions: Compound concentration 10.0 uM
T1 sequence (whole entry): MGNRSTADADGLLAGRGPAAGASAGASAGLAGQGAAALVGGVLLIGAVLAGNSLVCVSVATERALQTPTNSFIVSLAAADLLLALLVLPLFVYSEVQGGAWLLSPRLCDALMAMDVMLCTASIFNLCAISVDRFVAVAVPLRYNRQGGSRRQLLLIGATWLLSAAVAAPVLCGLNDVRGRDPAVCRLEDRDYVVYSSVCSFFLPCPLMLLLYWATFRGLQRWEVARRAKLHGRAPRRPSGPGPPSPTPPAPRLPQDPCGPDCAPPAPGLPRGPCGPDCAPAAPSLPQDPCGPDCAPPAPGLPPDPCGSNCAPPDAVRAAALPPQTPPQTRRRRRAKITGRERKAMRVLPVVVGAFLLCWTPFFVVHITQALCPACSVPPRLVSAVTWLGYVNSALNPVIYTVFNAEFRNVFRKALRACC

[2] = tested on: Receptor-type tyrosine-protein kinase FLT3 (Homo sapiens), P36888 [R834Q]; conditions: Compound concentration 1000.0 nM
[3] = target: Serine/threonine-protein kinase DCLK1 (Homo sapiens) (UniProt O15075); conditions: Compound concentration 1000.0 nM
[4] = target: Receptor-type tyrosine-protein kinase FLT3 (Homo sapiens) (UniProt P36888); conditions: Compound concentration 1000.0 nM
[5] = tested on: Epidermal growth factor receptor (Homo sapiens), P00533 [L858R]; conditions: Compound concentration 1000.0 nM
[6] = target: T2, Mitogen-activated protein kinase kinase kinase kinase 2 (Homo sapiens) (UniProt Q12851); conditions: Compound concentration 1000.0 nM
T2 sequence (whole entry): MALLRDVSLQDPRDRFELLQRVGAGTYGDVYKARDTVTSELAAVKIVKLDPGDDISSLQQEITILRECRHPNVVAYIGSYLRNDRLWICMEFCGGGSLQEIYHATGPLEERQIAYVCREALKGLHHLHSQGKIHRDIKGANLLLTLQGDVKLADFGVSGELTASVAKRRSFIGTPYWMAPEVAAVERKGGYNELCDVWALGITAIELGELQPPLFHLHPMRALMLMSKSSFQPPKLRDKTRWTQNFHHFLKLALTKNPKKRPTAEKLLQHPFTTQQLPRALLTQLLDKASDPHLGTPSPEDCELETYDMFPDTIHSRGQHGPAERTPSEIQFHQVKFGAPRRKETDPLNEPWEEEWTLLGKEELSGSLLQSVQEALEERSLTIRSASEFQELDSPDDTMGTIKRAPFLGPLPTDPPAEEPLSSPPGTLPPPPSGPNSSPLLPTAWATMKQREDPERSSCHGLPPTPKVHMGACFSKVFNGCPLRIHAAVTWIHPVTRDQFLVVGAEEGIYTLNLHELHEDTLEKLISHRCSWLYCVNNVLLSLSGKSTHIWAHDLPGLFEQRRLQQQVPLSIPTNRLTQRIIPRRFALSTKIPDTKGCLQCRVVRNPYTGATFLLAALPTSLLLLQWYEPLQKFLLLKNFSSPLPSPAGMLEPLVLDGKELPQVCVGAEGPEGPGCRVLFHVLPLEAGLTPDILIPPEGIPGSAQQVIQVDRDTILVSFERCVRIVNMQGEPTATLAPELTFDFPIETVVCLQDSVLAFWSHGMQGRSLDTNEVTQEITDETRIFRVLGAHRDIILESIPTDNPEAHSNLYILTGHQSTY

[7] = target: Serine/threonine-protein kinase Nek4 (Homo sapiens) (UniProt P51957); conditions: Compound concentration 1000.0 nM
[8] = target: Cyclin-dependent kinase 11B (Homo sapiens) (UniProt P21127); conditions: Compound concentration 1000.0 nM
[9] = target: T3, Tyrosine-protein kinase TXK (Homo sapiens) (UniProt P42681); conditions: Compound concentration 1000.0 nM
T3 sequence (whole entry): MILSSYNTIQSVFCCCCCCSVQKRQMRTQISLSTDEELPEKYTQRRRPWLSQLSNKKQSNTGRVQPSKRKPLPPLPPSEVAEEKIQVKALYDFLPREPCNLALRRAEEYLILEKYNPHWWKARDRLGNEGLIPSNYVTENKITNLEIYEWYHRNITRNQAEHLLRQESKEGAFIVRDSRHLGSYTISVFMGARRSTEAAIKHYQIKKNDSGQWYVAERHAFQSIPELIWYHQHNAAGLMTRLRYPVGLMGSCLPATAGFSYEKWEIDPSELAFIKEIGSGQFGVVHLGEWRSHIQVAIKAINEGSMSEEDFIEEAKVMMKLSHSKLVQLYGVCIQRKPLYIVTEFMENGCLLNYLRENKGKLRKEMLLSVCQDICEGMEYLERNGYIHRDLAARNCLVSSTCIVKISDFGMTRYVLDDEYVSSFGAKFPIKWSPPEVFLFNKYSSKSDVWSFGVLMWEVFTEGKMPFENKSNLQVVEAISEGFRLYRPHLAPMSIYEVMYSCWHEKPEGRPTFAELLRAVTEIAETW

[10] = target: Non-receptor tyrosine-protein kinase TYK2 (Homo sapiens) (UniProt P29597); conditions: Compound concentration 1000.0 nM
[11] = tested on: Phosphatidylinositol 4,5-bisphosphate 3-kinase catalytic subunit alpha isoform (Homo sapiens), P42336 [E545A]; conditions: Compound concentration 1000.0 nM
[12] = tested on: Tyrosine-protein kinase ABL1 (Homo sapiens), P00519 [M351T]; conditions: Compound concentration 1000.0 nM
[13] = target: Casein kinase I isoform alpha-like (Homo sapiens) (UniProt Q8N752); conditions: Compound concentration 1000.0 nM
[14] = target: Rho-associated protein kinase 2 (Homo sapiens) (UniProt O75116); conditions: Compound concentration 1000.0 nM
Chain of Rho-associated protein kinase 2 (Homo sapiens) (O75116 whole entry, looked up): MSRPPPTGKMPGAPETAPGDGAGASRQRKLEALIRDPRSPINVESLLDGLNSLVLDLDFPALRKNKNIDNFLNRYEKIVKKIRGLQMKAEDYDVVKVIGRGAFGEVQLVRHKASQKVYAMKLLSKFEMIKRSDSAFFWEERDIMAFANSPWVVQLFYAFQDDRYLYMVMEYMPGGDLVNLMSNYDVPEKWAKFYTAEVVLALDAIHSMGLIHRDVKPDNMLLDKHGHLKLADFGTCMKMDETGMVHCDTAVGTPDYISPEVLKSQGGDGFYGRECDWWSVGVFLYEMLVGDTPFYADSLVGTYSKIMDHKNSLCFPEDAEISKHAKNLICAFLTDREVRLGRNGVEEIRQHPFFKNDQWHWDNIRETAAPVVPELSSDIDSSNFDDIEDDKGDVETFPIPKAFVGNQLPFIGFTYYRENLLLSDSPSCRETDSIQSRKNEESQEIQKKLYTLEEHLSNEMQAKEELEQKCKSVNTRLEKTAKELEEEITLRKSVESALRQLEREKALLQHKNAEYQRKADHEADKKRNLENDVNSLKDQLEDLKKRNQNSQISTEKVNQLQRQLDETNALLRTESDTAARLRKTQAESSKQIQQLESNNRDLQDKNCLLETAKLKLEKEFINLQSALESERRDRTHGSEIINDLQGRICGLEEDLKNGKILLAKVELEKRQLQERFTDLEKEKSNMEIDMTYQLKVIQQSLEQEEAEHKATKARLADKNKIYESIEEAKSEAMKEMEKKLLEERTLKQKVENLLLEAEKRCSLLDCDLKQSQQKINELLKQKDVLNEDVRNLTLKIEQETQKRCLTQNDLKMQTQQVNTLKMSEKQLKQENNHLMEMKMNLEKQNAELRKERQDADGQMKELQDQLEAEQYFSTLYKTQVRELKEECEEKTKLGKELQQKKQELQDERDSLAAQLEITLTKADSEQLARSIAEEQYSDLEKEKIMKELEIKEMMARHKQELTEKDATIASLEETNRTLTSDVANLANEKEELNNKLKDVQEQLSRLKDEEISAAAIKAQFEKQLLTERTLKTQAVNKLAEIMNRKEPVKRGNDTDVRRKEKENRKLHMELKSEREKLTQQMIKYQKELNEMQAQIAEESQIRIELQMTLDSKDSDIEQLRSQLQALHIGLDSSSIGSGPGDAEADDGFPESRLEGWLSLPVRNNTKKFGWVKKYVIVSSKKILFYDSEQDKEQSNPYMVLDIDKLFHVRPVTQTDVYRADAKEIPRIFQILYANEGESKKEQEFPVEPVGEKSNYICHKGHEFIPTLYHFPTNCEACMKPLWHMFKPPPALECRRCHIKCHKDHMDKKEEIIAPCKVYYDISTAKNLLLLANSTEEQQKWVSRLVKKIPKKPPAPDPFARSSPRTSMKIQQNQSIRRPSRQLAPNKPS

Chain of Cyclin-dependent kinase 11B (Homo sapiens) (P21127 whole entry): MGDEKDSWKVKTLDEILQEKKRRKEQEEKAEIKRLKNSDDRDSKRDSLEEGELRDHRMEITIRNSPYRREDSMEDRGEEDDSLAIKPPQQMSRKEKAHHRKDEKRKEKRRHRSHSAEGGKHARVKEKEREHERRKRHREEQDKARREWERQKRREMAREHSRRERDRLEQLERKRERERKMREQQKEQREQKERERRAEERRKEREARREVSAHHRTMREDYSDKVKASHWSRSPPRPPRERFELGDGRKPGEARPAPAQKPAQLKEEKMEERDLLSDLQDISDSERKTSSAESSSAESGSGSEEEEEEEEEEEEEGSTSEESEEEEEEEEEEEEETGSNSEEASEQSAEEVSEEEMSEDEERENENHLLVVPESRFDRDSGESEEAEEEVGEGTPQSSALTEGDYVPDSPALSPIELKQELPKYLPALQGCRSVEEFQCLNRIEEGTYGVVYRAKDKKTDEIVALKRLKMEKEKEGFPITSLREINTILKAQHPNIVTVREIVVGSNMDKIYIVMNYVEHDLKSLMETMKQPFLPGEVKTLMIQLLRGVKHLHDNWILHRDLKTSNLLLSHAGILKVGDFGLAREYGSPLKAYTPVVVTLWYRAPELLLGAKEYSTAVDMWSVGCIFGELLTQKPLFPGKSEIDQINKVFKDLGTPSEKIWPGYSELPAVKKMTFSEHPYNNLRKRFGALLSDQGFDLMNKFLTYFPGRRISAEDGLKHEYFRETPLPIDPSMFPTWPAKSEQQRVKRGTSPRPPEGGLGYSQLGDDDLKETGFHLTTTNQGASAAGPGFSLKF
Chain of Phosphatidylinositol 4,5-bisphosphate 3-kinase catalytic subunit alpha isoform (Homo sapiens), P42336 [E545A] (P42336 whole entry E545A, canonical isoform): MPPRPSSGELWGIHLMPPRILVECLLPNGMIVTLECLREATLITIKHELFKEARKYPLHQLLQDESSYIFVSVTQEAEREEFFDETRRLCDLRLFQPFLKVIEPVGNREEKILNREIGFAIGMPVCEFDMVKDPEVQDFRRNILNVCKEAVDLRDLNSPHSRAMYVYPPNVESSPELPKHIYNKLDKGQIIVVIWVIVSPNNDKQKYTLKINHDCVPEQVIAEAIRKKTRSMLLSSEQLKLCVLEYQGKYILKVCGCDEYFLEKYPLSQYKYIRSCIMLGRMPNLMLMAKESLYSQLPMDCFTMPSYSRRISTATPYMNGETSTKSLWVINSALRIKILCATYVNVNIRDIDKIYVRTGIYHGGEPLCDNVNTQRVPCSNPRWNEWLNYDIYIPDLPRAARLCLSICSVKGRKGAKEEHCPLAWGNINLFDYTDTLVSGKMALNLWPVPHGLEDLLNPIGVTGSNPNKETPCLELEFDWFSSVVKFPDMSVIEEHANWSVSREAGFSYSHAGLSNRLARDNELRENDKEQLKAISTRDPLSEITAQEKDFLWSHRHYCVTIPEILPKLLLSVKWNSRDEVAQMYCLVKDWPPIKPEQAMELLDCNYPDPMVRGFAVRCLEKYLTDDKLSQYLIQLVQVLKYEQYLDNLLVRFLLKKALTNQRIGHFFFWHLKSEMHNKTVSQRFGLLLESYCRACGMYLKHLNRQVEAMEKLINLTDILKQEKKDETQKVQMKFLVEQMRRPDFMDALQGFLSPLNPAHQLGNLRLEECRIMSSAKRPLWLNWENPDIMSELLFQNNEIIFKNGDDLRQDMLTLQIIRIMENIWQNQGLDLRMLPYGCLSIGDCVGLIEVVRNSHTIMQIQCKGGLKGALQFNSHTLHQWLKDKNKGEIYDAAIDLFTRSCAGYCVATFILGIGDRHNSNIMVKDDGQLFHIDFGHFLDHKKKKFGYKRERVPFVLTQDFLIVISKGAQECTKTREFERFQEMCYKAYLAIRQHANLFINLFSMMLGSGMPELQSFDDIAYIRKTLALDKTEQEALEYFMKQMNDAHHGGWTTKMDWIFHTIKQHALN
Chain of Serine/threonine-protein kinase DCLK1 (Homo sapiens) (O15075 whole entry): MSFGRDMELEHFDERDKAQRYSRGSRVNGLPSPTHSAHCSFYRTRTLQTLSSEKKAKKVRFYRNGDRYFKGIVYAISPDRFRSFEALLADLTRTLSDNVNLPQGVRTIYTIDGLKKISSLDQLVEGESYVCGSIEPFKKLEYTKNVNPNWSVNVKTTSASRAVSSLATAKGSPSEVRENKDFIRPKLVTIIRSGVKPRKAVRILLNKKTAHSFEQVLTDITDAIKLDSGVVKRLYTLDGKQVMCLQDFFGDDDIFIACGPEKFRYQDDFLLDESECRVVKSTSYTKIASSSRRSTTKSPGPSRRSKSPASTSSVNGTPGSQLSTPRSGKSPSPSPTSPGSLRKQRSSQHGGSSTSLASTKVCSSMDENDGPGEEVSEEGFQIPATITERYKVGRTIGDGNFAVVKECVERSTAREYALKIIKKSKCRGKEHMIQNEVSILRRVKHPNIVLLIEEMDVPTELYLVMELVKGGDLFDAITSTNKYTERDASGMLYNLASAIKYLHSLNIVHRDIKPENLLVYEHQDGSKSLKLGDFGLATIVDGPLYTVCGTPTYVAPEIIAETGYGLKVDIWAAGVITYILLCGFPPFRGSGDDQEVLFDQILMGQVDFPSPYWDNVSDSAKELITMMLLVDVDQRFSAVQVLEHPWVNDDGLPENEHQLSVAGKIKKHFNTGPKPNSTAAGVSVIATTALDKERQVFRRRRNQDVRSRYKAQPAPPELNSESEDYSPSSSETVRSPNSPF
Chain of Serine/threonine-protein kinase Nek4 (Homo sapiens) (P51957 whole entry, looked up): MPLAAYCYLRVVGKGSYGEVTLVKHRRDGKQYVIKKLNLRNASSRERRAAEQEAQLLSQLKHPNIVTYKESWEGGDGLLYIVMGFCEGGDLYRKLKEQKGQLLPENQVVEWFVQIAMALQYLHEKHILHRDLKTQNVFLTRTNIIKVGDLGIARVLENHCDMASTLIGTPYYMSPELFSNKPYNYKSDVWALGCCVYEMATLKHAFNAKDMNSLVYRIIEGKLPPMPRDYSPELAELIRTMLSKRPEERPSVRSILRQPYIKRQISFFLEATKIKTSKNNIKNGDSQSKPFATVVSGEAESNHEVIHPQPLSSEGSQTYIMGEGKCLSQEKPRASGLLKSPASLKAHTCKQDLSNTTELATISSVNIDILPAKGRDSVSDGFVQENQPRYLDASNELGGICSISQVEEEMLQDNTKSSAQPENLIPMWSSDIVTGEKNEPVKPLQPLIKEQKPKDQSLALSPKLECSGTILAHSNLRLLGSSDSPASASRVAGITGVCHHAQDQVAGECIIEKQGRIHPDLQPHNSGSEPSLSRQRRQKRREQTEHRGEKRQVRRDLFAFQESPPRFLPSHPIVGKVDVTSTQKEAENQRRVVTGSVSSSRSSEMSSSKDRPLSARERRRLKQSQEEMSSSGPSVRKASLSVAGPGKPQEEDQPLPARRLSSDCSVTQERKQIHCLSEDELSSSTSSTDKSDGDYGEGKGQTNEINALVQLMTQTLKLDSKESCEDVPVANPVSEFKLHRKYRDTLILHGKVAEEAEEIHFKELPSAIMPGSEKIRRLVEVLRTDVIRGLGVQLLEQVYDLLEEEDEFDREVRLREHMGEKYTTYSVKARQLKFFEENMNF

CN(C)C(=O)Cn1cc(-c2nc(C3(c4ccc(-c5cnc(N)nc5)cc4)CC3)no2)cn1 [BI 0153]
inactive: inhibition [1] 1.18% | residual activity [2] 90% | residual activity [3] 88% | residual activity [4] 90% | residual activity [5] 86% | residual activity [6] 89% | residual activity [7] 95% | residual activity [8] 96% | residual activity [9] 98% | residual activity [10] 90% | residual activity [11] 99% | residual activity [12] 100% | residual activity [13] 98% | residual activity [14] 89%

CN(C)C(=O)Cn1cc(-c2nc([C@@](C)(c3ccc(-c4cnc(N)nc4)cc3)C3CC3)no2)cn1 [BI 665915]
inactive: inhibition [1] 1.48% | residual activity [2] 87% | residual activity [3] 71% | residual activity [4] 97% | residual activity [5] 100% | residual activity [6] 100% | residual activity [7] 88% | residual activity [8] 79% | residual activity [9] 96% | residual activity [10] 65% | residual activity [11] 75% | residual activity [12] 80% | residual activity [13] 100% | residual activity [14] 100%
